Values of other authors as cited in patent US20040058975A1, “Method for fertility control” (Schering AG, priority 2002, published 2004).
Read-outs that look alike come from different tables or passages of the source.

What was measured:
ovulation [1] = conditions: several mammalian species including rats, rabbits, sheep
ovulation [2] = conditions: monkeys
ovulation [3] = conditions: women
COX-2 = COX-2 (Homo sapiens, UniProt P35354); conditions: humans
ovulation [4] = conditions: COX-2 deficient mice

Chain of COX-2 (P35354 18-604): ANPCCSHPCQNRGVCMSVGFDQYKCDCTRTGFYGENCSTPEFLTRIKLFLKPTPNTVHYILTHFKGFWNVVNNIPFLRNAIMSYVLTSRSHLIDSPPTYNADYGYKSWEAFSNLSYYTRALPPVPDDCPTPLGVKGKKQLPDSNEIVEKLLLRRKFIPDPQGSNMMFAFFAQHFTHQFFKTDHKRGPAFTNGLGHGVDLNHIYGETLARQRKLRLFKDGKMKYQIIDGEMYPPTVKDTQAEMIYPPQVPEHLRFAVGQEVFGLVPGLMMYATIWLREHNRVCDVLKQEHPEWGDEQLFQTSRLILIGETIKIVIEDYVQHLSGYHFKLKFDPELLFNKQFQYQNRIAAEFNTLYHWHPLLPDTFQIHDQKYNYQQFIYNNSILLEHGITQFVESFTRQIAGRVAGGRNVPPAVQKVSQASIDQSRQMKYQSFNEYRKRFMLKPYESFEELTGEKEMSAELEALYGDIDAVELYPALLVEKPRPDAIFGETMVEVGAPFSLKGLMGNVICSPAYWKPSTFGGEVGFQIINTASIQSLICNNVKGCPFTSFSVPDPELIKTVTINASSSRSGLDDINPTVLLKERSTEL

In the case of CC(=O)Oc1ccccc1C(=O)O [Aspirin], the ovulation (ovulation [1]) is given as “may prevent ovulation”.

In the case of COc1ccc2c(c1)c(CC(=O)O)c(C)n2C(=O)c1ccc(Cl)cc1 [Indomethacin], the ovulation (ovulation [2]) is listed as “block ovulation”, the ovulation (ovulation [3]) is listed as “block ovulation” and the ovulation (ovulation [1]) is listed as “may prevent ovulation”.

In the case of COc1ccc2cc([C@H](C)C(=O)O)ccc2c1 [Naproxen], the ovulation (ovulation [1]) is given as “may prevent ovulation”.

For CS(=O)(=O)c1ccc(C2=C(c3ccccc3)C(=O)OC2)cc1 [Rofecoxib, 4-(4-mesylphenyl)-3-phenylfuran-2(5H)-one], the follicular rupture (COX-2) is given as “delayed follicular rupture” and the peripheral hormonal cycles (COX-2) is given as “without affecting peripheral hormonal cycles”.

In the case of CCCCC[C@H](O)/C=C/[C@H]1[C@H](O)CC(=O)[C@@H]1C/C=C\CCCC(=O)O [prostaglandin E2], the anovulation (ovulation [4]) is listed as “restored”.

In the case of Interleukin-1β: Interleukin-1β, the anovulation (ovulation [4]) is given as “restored”.
